In one assay the test system is SARS-CoV-2. The assay can be described thus: Inhibitory activity of cytopathic effect (CPE) in HEK293T/ACE2-TMPRSS2 cells. In kind it is cell-based. Particulars: Severe acute respiratory syndrome coronavirus 2, HEK-293T, 72 h. (In general: Damage to the host cells serves as the signal in cytopathic effect assays.)
The target of the next assay is SARS-CoV-2 3CL protease (Severe acute respiratory syndrome coronavirus 2, UniProt P0DTD1). The assay can be described thus: Inhibitory activity test against SARS-CoV-2 3CL proteases. In kind it is biochemical.
Setting [1] is: HEK293T/ACE2-TMPRSS2 cells, cultured 3 days, CellTiter-Glo 2.0 luminescence, read-out: EC50 (50% SARS-CoV-2 infected cell death inhibitory concentration).
Setting [2] is: read-out: IC50 (50% SARS-CoV-2 3CL protease inhibitory concentration).
[3] abbreviates: 50% SARS-CoV-2 infected cell death inhibitory concentration, HEK293T/ACE2-TMPRSS2 cells, CellTiter-Glo 2.0 after 3 days culture, read-out: EC50.

Like-named read-outs stand apart in the source and are kept apart here. Bounds are passed on as bounds.

Take `CNC(=O)[C@@H]1CCN(c2cc3c(c(OC)n2)c(=O)n(-c2cnc4cc(F)ccn24)c(=O)n3-c2ccc(F)c(Cl)c2)C1` [Compound I-1000]: the EC50 with SARS-CoV-2 (setting [1]) is under 100 nM. In addition, on SARS-CoV-2 3CL protease (setting [2]), the IC50 is under 100 nM.

`COc1nc(N2[C@@H]3CC[C@H]2COC3)cc2c1c(=O)n(-c1cnc3cc(F)ccn13)c(=O)n2-c1ccc(F)c(Cl)c1` [Compound I-1001]: the EC50 in the assay with SARS-CoV-2 (read-out: EC50 (50% SARS-CoV-2 infected cell death inhibitory concentration)) was under 100 nM. The compound further gave an IC50 on SARS-CoV-2 3CL protease (IC50 (50% SARS-CoV-2 3CL protease inhibitory concentration)) of under 100 nM.

For `COc1nc(N2CCC2)cc2c1c(=O)n(-c1cnc3cc(F)ccn13)c(=O)n2-c1ccc(F)c(Cl)c1` [Compound I-1002], the EC50 in the assay with SARS-CoV-2 (setting [1]) is under 100 nM. Moreover, on SARS-CoV-2 3CL protease (setting [2]), the IC50 was under 100 nM.

Turning to `COc1nc(N2CCC(F)(F)C2)cc2c1c(=O)n(-c1cc(C)cnn1)c(=O)n2-c1ccc(F)c(Cl)c1` [Compound I-1003], the EC50 in the assay on SARS-CoV-2 (setting [1]) is under 100 nM. Besides, the IC50 at SARS-CoV-2 3CL protease (setting [2]) is under 100 nM.

Consider `COc1nc(N2CCC(O)(CF)C2)cc2c1c(=O)n(-c1cncc(Cl)c1)c(=O)n2-c1ccc(F)c(Cl)c1` (centres unmarked) [Compound I-1004], for which, in the assay with SARS-CoV-2 (setting [1]), the EC50 was under 100 nM. The IC50 at SARS-CoV-2 3CL protease (setting [2]) is under 100 nM.

For the compound `[2H]C([2H])([2H])O[C@@H]1CCN(c2cc3c(c(OC)n2)c(=O)n(-c2cnc4cc(F)ccn24)c(=O)n3-c2ccc(F)c(F)c2)C1` [Compound I-1005], the EC50 with SARS-CoV-2 (setting [3]) came out at 8.65 nM. In addition, the IC50 at SARS-CoV-2 3CL protease (setting [2]) worked out at 8.9 nM.

On to `COc1nc(N(C)CC(F)(F)F)cc2c1c(=O)n(-c1cnc3cc(F)ccn13)c(=O)n2-c1ccc(F)c(Cl)c1` [Compound I-1006], for which the EC50 in the assay with SARS-CoV-2 (setting [1]) is under 100 nM. Also, the IC50 on SARS-CoV-2 3CL protease (setting [2]) is under 100 nM.

For the compound `COc1nc(N2CCC(S(C)(=O)=O)C2)cc2c1c(=O)n(-c1cnc3cc(F)ccn13)c(=O)n2-c1ccc(F)c(Cl)c1` (centres unmarked) [Compound I-1007], the EC50 in the assay on SARS-CoV-2 (setting [1]) fell in the range of 100 to 1000 nM. For the same compound, the IC50 on SARS-CoV-2 3CL protease (setting [2]) was under 100 nM.

Turning to `COC[C@@H]1CCN(c2cc3c(c(OC)n2)c(=O)n(-c2cncc(Cl)c2)c(=O)n3-c2ccc(F)c(Cl)c2)C1` [Compound I-1008], the EC50 in the assay with SARS-CoV-2 (setting [1]) was under 100 nM. Besides, the IC50 on SARS-CoV-2 3CL protease (setting [2]) is under 100 nM.

As for `COc1nc(N2CCC(F)(F)C2)cc2c1c(=O)n(-c1cnc3cc(F)c(F)cn13)c(=O)n2-c1ccc(F)c(Cl)c1` [Compound I-1009], in the assay on SARS-CoV-2 (setting [1]), the EC50 was under 100 nM. For the same compound, the IC50 on SARS-CoV-2 3CL protease (setting [2]) was under 100 nM.

Regarding `COc1nc(N2CCC(C)(O)C2)cc2c1c(=O)n(-c1cncc(Cl)c1)c(=O)n2-c1ccc(F)c(Cl)c1` (centres unmarked) [Compound I-1010], the EC50 with SARS-CoV-2 (setting [1]) was under 100 nM. Also, the IC50 on SARS-CoV-2 3CL protease (setting [2]) is under 100 nM.

On to `[2H]C([2H])([2H])O[C@@H]1CCN(c2cc3c(c(OC)n2)c(=O)n(-c2cnc4cc(F)ccn24)c(=O)n3-c2ccc(F)c(C(F)(F)F)c2)C1` [Compound I-1011], for which the EC50 with SARS-CoV-2 (setting [1]) is under 100 nM. For the same compound, the IC50 on SARS-CoV-2 3CL protease (setting [2]) is under 100 nM.

Consider `[2H]C([2H])([2H])O[C@@H]1CCN(c2cc3c(c(OC)n2)c(=O)n(-c2cncc(OCF)c2)c(=O)n3-c2ccc(F)c(F)c2)C1` [Compound I-1012], for which, in the assay on SARS-CoV-2 (setting [1]), the EC50 was under 100 nM. The IC50 on SARS-CoV-2 3CL protease (setting [2]) was under 100 nM.

In the case of `COc1nc(N2CCOCC2)cc2c1c(=O)n(-c1cncc(Cl)c1)c(=O)n2-c1ccc(F)c(Cl)c1` [Compound I-1013], the EC50 with SARS-CoV-2 (setting [1]) was under 100 nM. Moreover, at SARS-CoV-2 3CL protease (setting [2]), the IC50 is under 100 nM.

Take `COc1nc(N2CCC(F)(F)C2)cc2c1c(=O)n(-c1cnc3cc(F)ccn13)c(=O)n2-c1ccc(F)c(C(F)F)c1` [Compound I-1015]: the EC50 with SARS-CoV-2 (setting [1]) is under 100 nM. Moreover, the IC50 at SARS-CoV-2 3CL protease (setting [2]) was under 100 nM.

For the compound `COc1nc(C2=CCOCC2)cc2c1c(=O)n(-c1cnc3cc(F)ccn13)c(=O)n2-c1ccc(F)c(Cl)c1` [Compound I-1016], the EC50 with SARS-CoV-2 (setting [1]) was under 100 nM. The IC50 at SARS-CoV-2 3CL protease (setting [2]) was under 100 nM.

Regarding `COc1nc(N2CC(C#N)C2)cc2c1c(=O)n(-c1cnc3cc(F)ccn13)c(=O)n2-c1ccc(F)c(Cl)c1` [Compound I-1017], the EC50 in the assay with SARS-CoV-2 (setting [1]) is under 100 nM. Moreover, the IC50 at SARS-CoV-2 3CL protease (setting [2]) was under 100 nM.

Turning to `COc1nc(N2CCC(F)(F)C2)cc2c1c(=O)n(-c1cncc(C(F)F)c1)c(=O)n2-c1ccc(F)c(Cl)c1` [Compound I-1018], the EC50 in the assay with SARS-CoV-2 (setting [1]) was under 100 nM. For the same compound, the IC50 at SARS-CoV-2 3CL protease (setting [2]) was under 100 nM.

For `C=C(C)c1cc2c(c(OC)n1)c(=O)n(-c1cnc3cc(F)ccn13)c(=O)n2-c1ccc(F)c(Cl)c1` [Compound I-1019], in the assay on SARS-CoV-2 (setting [3]), the EC50 came to 570 nM. In addition, at SARS-CoV-2 3CL protease (setting [2]), the IC50 came out at 11 nM.

For the compound `COc1nc(N2C[C@@H](F)[C@@H](F)C2)cc2c1c(=O)n(-c1cnc3cc(F)ccn13)c(=O)n2-c1ccc(F)c(F)c1` [Compound I-1020], the EC50 in the assay on SARS-CoV-2 (setting [1]) was under 100 nM. The IC50 on SARS-CoV-2 3CL protease (setting [2]) was under 100 nM.

Regarding `COc1nc(C2CCOCC2)cc2c1c(=O)n(-c1cnc3cc(F)ccn13)c(=O)n2-c1ccc(F)c(Cl)c1` [Compound I-1021], the EC50 with SARS-CoV-2 (setting [3]) came out at 16.1 nM. Moreover, the IC50 on SARS-CoV-2 3CL protease (setting [2]) is 12 nM.

On to `COc1nc(N2CCC(N(C)C)C2)cc2c1c(=O)n(-c1cncc(Cl)c1)c(=O)n2-c1ccc(F)c(Cl)c1` (centres unmarked) [Compound I-1022], for which the EC50 in the assay on SARS-CoV-2 (setting [1]) was under 100 nM. Besides, the IC50 at SARS-CoV-2 3CL protease (setting [2]) was under 100 nM.

With `CCc1nc(N2CCC(F)(F)C2)cc2c1c(=O)n(-c1cncc(Cl)c1)c(=O)n2-c1ccc(F)c(F)c1` [Compound I-1023], the EC50 in the assay on SARS-CoV-2 (setting [1]) was under 100 nM. The IC50 at SARS-CoV-2 3CL protease (setting [2]) is under 100 nM.

Turning to `COc1nc(N2CC[C@@H](OC(F)F)C2)cc2c1c(=O)n(-c1cnc3cc(F)ccn13)c(=O)n2-c1ccc(F)c(F)c1` [Compound I-1024], the EC50 in the assay with SARS-CoV-2 (setting [1]) is under 100 nM. The IC50 at SARS-CoV-2 3CL protease (setting [2]) is under 100 nM.

As for `COc1nc(N2CC[C@@H](O)C2)cc2c1c(=O)n(-c1cncc(OCF)c1)c(=O)n2-c1ccc(F)c(F)c1` [Compound I-1025], the EC50 in the assay on SARS-CoV-2 (setting [1]) is under 100 nM. Also, on SARS-CoV-2 3CL protease (setting [2]), the IC50 was under 100 nM.

On to `[2H]C([2H])([2H])O[C@@H]1CCN(c2cc3c(c(OC)n2)c(=O)n(-c2cncc(C#N)c2)c(=O)n3-c2ccc(F)c(F)c2)C1` [Compound I-1026], for which the EC50 in the assay on SARS-CoV-2 (setting [1]) was under 100 nM. In addition, on SARS-CoV-2 3CL protease (setting [2]), the IC50 was under 100 nM.

Take `COc1nc(N2CC[C@@H](O)C2)cc2c1c(=O)n(-c1cncc(C#N)c1)c(=O)n2-c1ccc(F)c(F)c1` [Compound I-1027]: the EC50 with SARS-CoV-2 (setting [1]) is under 100 nM. Also, the IC50 at SARS-CoV-2 3CL protease (setting [2]) was under 100 nM.

`[2H]C([2H])([2H])O[C@@H]1CCN(c2cc3c(c(OC)n2)c(=O)n(-c2cncc(F)c2)c(=O)n3-c2ccc(F)c(F)c2)C1` [Compound I-1028]: in the assay on SARS-CoV-2 (setting [1]), the EC50 is under 100 nM. The IC50 at SARS-CoV-2 3CL protease (setting [2]) is under 100 nM.

As to `COc1nc(NC2CC2)cc2c1c(=O)n(-c1cnc3cc(F)ccn13)c(=O)n2-c1ccc(F)c(Cl)c1` [Compound I-1029], the EC50 in the assay on SARS-CoV-2 (setting [1]) was under 100 nM. For the same compound, the IC50 at SARS-CoV-2 3CL protease (setting [2]) is under 100 nM.

With `COc1nc(N2C[C@@H]3C[C@H]2CO3)cc2c1c(=O)n(-c1cncc(F)c1)c(=O)n2-c1ccc(F)c(F)c1` [Compound I-1030], in the assay with SARS-CoV-2 (setting [1]), the EC50 is under 100 nM. For the same compound, the IC50 at SARS-CoV-2 3CL protease (setting [2]) was under 100 nM.

Turning to `COc1nc(N2CC[C@@H](NC(C)=O)C2)cc2c1c(=O)n(-c1cnc3cc(F)ccn13)c(=O)n2-c1ccc(F)c(Cl)c1` [Compound I-1031], the EC50 in the assay on SARS-CoV-2 (setting [1]) was 100 to 1000 nM. In addition, the IC50 at SARS-CoV-2 3CL protease (setting [2]) was under 100 nM.

Consider `CCc1cc2c(c(OC)n1)c(=O)n(-c1cnc3cc(F)ccn13)c(=O)n2-c1ccc(F)c(Cl)c1` [Compound I-1032], for which, in the assay on SARS-CoV-2 (setting [1]), the EC50 is under 100 nM. Further, the IC50 on SARS-CoV-2 3CL protease (setting [2]) was under 100 nM.

Take `COC[C@@H]1CCN(c2cc3c(c(OC)n2)c(=O)n(-c2cnc4cc(F)ccn24)c(=O)n3-c2ccc(F)c(Cl)c2)C1` [Compound I-1033]: in the assay on SARS-CoV-2 (setting [1]), the EC50 is under 100 nM. The IC50 at SARS-CoV-2 3CL protease (setting [2]) is under 100 nM.

Take `COc1nc(N(C)C(C)C)cc2c1c(=O)n(-c1cnc3cc(F)ccn13)c(=O)n2-c1ccc(F)c(Cl)c1` [Compound I-1034]: the EC50 in the assay with SARS-CoV-2 (setting [1]) is under 100 nM. The IC50 at SARS-CoV-2 3CL protease (setting [2]) is under 100 nM.

The values are drawn from patent US20240400560A1, “BICYCLIC HETEROCYCLIC DERIVATIVE HAVING VIRAL GROWTH INHIBITORY ACTIVITY AND PHARMACEUTICAL COMPOSITION CONTAINING SAME” (Shionogi & Co., Ltd., priority 2021, published 2024).
